From PMC9631343 (ACS Bio & Med Chem Au, 2022)

System: SARS-CoV-2 (Omicron variant, B.1.1.529.1/BA.1 sublineage)
Assay type: cell-based

OC[C@H]1O[C@@H](n2cnc3c(N[C@@H]4CCOC4)ncnc32)[C@H](O)[C@@H]1O [tecadenoson]
100% CPE inhibitory concentration (CPEIC100): 7.65 ± 0.25 µM
